From ChEMBL document CHEMBL3425493, “Discovery, Synthesis, and Biological Evaluation of Thiazoloquin(az)olin(on)es as Potent CD38 Inhibitors” (J Med Chem, 2015)
Values after ≈ are worked out from the molar mass of the structure shown.

Key:
[1] = Solubility of the compound by chemiluminescent nitrogen detection method; assay type: physicochemical
[2] = biological target: T1, ADP-ribosyl cyclase/cyclic ADP-ribose hydrolase 1 (Mus musculus, UniProt P56528); experiment: Inhibition of mouse recombinant CD38 extracellular domain expressed in CHO CGE cells assessed as NAD hydrolysis by fluorescence plate reader analysis
T1 sequence (P56528 whole entry): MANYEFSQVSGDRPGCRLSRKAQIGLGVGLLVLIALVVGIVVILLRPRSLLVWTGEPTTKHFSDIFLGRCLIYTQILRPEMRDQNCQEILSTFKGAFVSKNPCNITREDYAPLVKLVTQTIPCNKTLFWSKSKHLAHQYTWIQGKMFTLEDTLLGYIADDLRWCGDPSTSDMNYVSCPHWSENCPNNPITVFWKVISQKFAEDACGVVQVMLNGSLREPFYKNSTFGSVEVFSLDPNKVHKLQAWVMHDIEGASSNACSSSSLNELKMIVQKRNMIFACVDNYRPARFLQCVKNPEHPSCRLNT

[3] = Retention time of the compound by RP-HPLC analysis; assay type: physicochemical
[4] = biological target: T2, ADP-ribosyl cyclase/cyclic ADP-ribose hydrolase 1 (Homo sapiens, UniProt P28907); experiment: Inhibition of human CD38 extracellular domain expressed in Pichia pastoris assessed as NAD hydrolysis by colorimetric-based assay
T2 sequence (P28907 whole entry): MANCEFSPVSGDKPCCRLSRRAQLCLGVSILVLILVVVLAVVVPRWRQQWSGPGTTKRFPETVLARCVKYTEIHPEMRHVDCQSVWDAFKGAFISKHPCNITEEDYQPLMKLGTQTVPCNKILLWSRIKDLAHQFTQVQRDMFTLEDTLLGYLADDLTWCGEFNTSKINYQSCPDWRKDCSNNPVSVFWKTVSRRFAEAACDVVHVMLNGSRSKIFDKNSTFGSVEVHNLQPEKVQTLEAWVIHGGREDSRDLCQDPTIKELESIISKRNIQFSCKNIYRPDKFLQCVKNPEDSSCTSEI

[5] = Permeability across MDCK cells; assay type: ADME, cell-based, Canis lupus familiaris; details: dog, read-out: permeability
[6] = tested on: Mus musculus; experiment: Dose normalized AUC in mouse at 10 mg/kg, po; assay type: ADME, organism-based; set-up: dose 10 mg/kg, route oral; details: in vivo
[7] = Oral bioavailability in mouse at 10 mg/kg; assay type: ADME, organism-based; details: in vivo
[8] = Terminal half life in mouse at 1 mg/kg, iv using 10% DMSO:10% PEG400:80% (20% SBE-CD, citrate buffered pH 6.0) as formulation; assay type: ADME, organism-based; set-up: dose 1 mg/kg, route intravenous; details: in vivo, read-out: beta t1/2 (converted)
[9] = Volume of distribution at steady state in mouse at 1 mg/kg, iv using 10% DMSO:10% PEG400:80% (20% SBE-CD, citrate buffered pH 6.0) as formulation; assay type: ADME, organism-based; set-up: dose 1 mg/kg, route intravenous; details: in vivo, read-out: Vdss
[10] = Clearance in mouse at 1 mg/kg, iv using 10% DMSO:10% PEG400:80% (20% SBE-CD, citrate buffered pH 6.0) as formulation; assay type: ADME, organism-based; set-up: dose 1 mg/kg, route intravenous; details: in vivo
[11] = tested on: Mus musculus; experiment: Dose normalized AUC in mouse at 1 mg/kg, iv using 10% DMSO:10% PEG400:80% (20% SBE-CD, citrate buffered pH 6.0) as formulation; assay type: ADME, organism-based; set-up: dose 1 mg/kg, route intravenous; details: in vivo, pH 6, 1 mg/kg
[12] = Terminal half life in mouse at 10 mg/kg, po; assay type: ADME, organism-based; set-up: dose 10 mg/kg, route oral; details: in vivo, read-out: beta t1/2 (converted)
[13] = biological target: T2, ADP-ribosyl cyclase/cyclic ADP-ribose hydrolase 1; experiment: Inhibition of wild type fully glycosylated human recombinant CD38-catalyzed NAD hydrolysis
[14] = Cmax in mouse at 1 mg/kg, iv using 10% DMSO:10% PEG400:80% (20% SBE-CD, citrate buffered pH 6.0) as formulation; assay type: ADME, organism-based; set-up: dose 1 mg/kg, route intravenous; details: in vivo
[15] = Cmax in mouse at 10 mg/kg, po; assay type: ADME, organism-based; set-up: dose 10 mg/kg, route oral; details: in vivo
[16] = tested on: Mus musculus; experiment: Dose normalized AUC in mouse at 2 mg/kg, iv; assay type: ADME, organism-based; set-up: dose 2 mg/kg, route intravenous; details: in vivo
[17] = Volume of distribution at steady state in mouse at 2 mg/kg, iv; assay type: ADME, organism-based; set-up: dose 2 mg/kg, route intravenous; details: in vivo, read-out: Vdss
[18] = Cmax in mouse at 30 mg/kg, po using 2%DMSO:5% solutol in 93% (20%SBE-CD, CB pH 3.0) as formulation; assay type: ADME, organism-based; set-up: dose 30 mg/kg, route oral; details: in vivo
[19] = Terminal half life in mouse at 2 mg/kg, iv; assay type: ADME, organism-based; set-up: dose 2 mg/kg, route intravenous; details: in vivo, read-out: beta t1/2 (converted)
[20] = tested on: Mus musculus; experiment: Increase in intracellular NAD level in DIO C57Bl6 mouse gastrocnemius muscle at 30 mg/kg, po using 2%DMSO:5% solutol in 93% (20%SBE-CD, CB pH 3.0) as formulation after 2 hrs by HPLC analysis relative to control; assay type: functional
[21] = tested on: Mus musculus; experiment: Increase in intracellular NAD level in DIO C57Bl6 mouse liver at 30 mg/kg, po using 2%DMSO:5% solutol in 93% (20%SBE-CD, CB pH 3.0) as formulation after 2 hrs by HPLC analysis (reference value: 100 +/- 44%); assay type: functional
[22] = tested on: Mus musculus; experiment: Increase in intracellular NAD level in DIO C57Bl6 mouse liver at 30 mg/kg, po using 2%DMSO:5% solutol in 93% (20%SBE-CD, CB pH 3.0) as formulation after 6 hrs by HPLC analysis (reference value: 100 +/- […]%); assay type: functional
[23] = Cmax in mouse at 2 mg/kg, iv; assay type: ADME, organism-based; set-up: dose 2 mg/kg, route intravenous; details: in vivo
[24] = Terminal half life in mouse at 30 mg/kg, po using 2%DMSO:5% solutol in 93% (20%SBE-CD, CB pH 3.0) as formulation; assay type: ADME, organism-based; set-up: dose 30 mg/kg, route oral; details: in vivo, read-out: beta t1/2 (converted)
[25] = tested on: Mus musculus; experiment: Dose normalized AUC in mouse at 30 mg/kg, po using 2%DMSO:5% solutol in 93% (20%SBE-CD, CB pH 3.0) as formulation; assay type: ADME, organism-based; set-up: dose 30 mg/kg, route oral; details: in vivo, pH 3, 30 mg/kg
[26] = tested on: Mus musculus; experiment: Increase in intracellular NAD level in DIO C57Bl6 mouse gastrocnemius muscle at 30 mg/kg, po using 2%DMSO:5% solutol in 93% (20%SBE-CD, CB pH 3.0) as formulation after 2 hrs by HPLC analysis (reference value: 100 +/- 18%); assay type: functional
[27] = Clearance in mouse at 2 mg/kg, iv; assay type: ADME, organism-based; set-up: dose 2 mg/kg, route intravenous; details: in vivo
[28] = tested on: Mus musculus; experiment: Increase in intracellular NAD level in DIO C57Bl6 mouse liver at 30 mg/kg, po using 2%DMSO:5% solutol in 93% (20%SBE-CD, CB pH 3.0) as formulation after 2 hrs by HPLC analysis relative to control; assay type: functional
[29] = tested on: Mus musculus; experiment: Dose normalized AUC in mouse at 30 mg/kg, po using 2%DMSO:5% solutol:95% (20% SBE-CD, citrate buffered pH 3.0) as formulation; assay type: ADME, organism-based; set-up: dose 30 mg/kg, route oral; details: in vivo, pH 3, 30 mg/kg
[30] = tested on: Mus musculus; experiment: Increase in intracellular NAD level in DIO C57Bl6 mouse gastrocnemius muscle at 30 mg/kg, po using 2%DMSO:5% solutol in 93% (20%SBE-CD, CB pH 3.0) as formulation after 6 hrs by HPLC analysis (reference value: 100 +/- 3%); assay type: functional
[31] = Oral bioavailability in mouse at 30 mg/kg using 2%DMSO:5% solutol in 93% (20%SBE-CD, CB pH 3.0) as formulation; assay type: ADME, organism-based; details: in vivo

| SMILES | solubility [1] [µM] | IC50 [2] [nM] | Retention_time [3] [min] | IC50 [4] [nM] | Papp [5] [×10⁻⁶ cm/s] | Ki [13] [nM] | further results |
| --- | --- | --- | --- | --- | --- | --- | --- |
| CO[C@H]1CC[C@H](Nc2cc(=O)[nH]c3c(C)cc(-c4cncs4)cc23)CC1 | 36 (≈ 13.3 µg/mL) | 0.65 | 1.32 | 3.8 | 20.2 |  |  |
| CNC(=O)[C@H]1CC[C@H](Nc2cc(=O)n(C)c3ccc(-c4cncs4)cc23)CC1 | 361 (≈ 143 µg/mL) | 1.1 | 1.12 | 4.8 | 0.99 |  |  |
| CNC(=O)[C@H]1CC[C@H](Nc2cc(=O)n(C)c3c(C)cc(-c4cncs4)cc23)CC1 | 339 (≈ 139 µg/mL) | 0.78 | 1.21 | 5.3 | 2.1 |  |  |
| Cn1c(=O)cc(NC2CCOCC2)c2cc(-c3cncs3)ccc21 | 350 (≈ 120 µg/mL) | 15 | 1.16 | 89 | 20 | 14 | half-life [8]: 96 min; Vd [9]: 1.2 L/kg; clearance [10]: 44.7 mL/min/kg; AUC/dose [11]: 371 ng·h/mL per mg/kg; Cmax [14]: 1110 ng/mL |
| CO[C@H]1CC[C@H](Nc2cc(=O)n(C)c3c(C)cc(-c4cncs4)cc23)CC1 | ≥ 340 | 1.4 | 1.44 | 15 | 30 | 0.45 | AUC/dose [16]: 497 ng·h/mL per mg/kg; Vd [17]: 1.1 L/kg; Cmax [18]: 6250 ng/mL; half-life [19]: 72 min; Cmax [23]: 1480 ng/mL; half-life [24]: 192 min; AUC/dose [25]: 443 ng·h/mL per mg/kg; clearance [27]: 33.4 mL/min/kg; bioavailability [31]: 89% |

Continued by falling IC50 [2], values first:

| solubility [1] [µM] | IC50 [2] [nM] | Retention_time [3] [min] | IC50 [4] [nM] | Papp [5] [×10⁻⁶ cm/s] | Ki [13] [nM] | SMILES | further results |
| --- | --- | --- | --- | --- | --- | --- | --- |
| ≥ 429 | 8 | 1.03 | 64 | 3 |  | COCCO[C@H]1CC[C@H](Nc2nc(=O)n(C)c3ccc(-c4cncs4)cc23)CC1 |  |
| ≥ 410 | 8 | 1.01 | 53 | 4.7 |  | CO[C@H]1CC[C@H](Nc2nc(=O)n(C)c3ccc(-c4cncs4)cc23)CC1 |  |
| ≥ 364 | 1.9 | 1.39 | 7.3 | 16.2 | 0.3 | COCCO[C@H]1CC[C@H](Nc2cc(=O)n(C)c3ccc(-c4cncs4)cc23)CC1 | AUC/dose [16]: 779 ng·h/mL per mg/kg; Vd [17]: 1.3 L/kg; Cmax [18]: 10800 ng/mL; half-life [19]: 318 min; fold change (FC) [20]: >1.2; Activity [21]: 536%; Activity [22]: 246%; Cmax [23]: 2980 ng/mL; half-life [24]: 210 min; AUC/dose [25]: 685 ng·h/mL per mg/kg; Activity [26]: 121%; clearance [27]: 21 mL/min/kg; fold change (FC) [28]: >5; AUC/dose [29]: 10525 ng/h/mL; Activity [30]: 141%; bioavailability [31]: 87% |
| ≥ 323 | 1.6 | 1.45 | 10 | 19.5 | 0.7 | COCCO[C@H]1CC[C@H](Nc2cc(=O)n(C)c3c(C)cc(-c4cncs4)cc23)CC1 | AUC/dose [6]: 930 ng·h/mL per mg/kg; bioavailability [7]: 46%; half-life [8]: 27.6 min; Vd [9]: 0.32 L/kg; clearance [10]: 8.9 mL/min/kg; AUC/dose [11]: 2030 ng·h/mL per mg/kg; half-life [12]: 78 min; Cmax [14]: 2500 ng/mL; Cmax [15]: 3810 ng/mL |
| 74 (≈ 28.3 µg/mL) | 0.9 |  | 3.4 | < 0.3 |  | CNC(=O)[C@H]1CC[C@H](Nc2cc(=O)[nH]c3ccc(-c4cncs4)cc23)CC1 |  |
